Results reported in ChEMBL document CHEMBL1146133, “Synthesis of benz[d]indeno[1,2-b]pyran-5,11-diones: versatile intermediates for the design and synthesis of topoisomerase I inhibitors” (2006).

What was measured:
Format in all cases: functional
[1] = tested on: DU-145; test: Antiproliferative activity against human DU145 cell line
[2] = tested on: MDA-MB-435; test: Antiproliferative activity against human MDA-MB-435 cell line
[3] = tested on: UACC-62; test: Antiproliferative activity against human UACC62 cell line
[4] = tested on: SF-268; test: Antiproliferative activity against human SF268 cell line
[5] = tested on: HCT-116; test: Antiproliferative activity against human HCT116 cell line
[6] = tested on: SN12C; test: Antiproliferative activity against human SN12C cell line
[7] = tested on: OVCAR-3; test: Antiproliferative activity against human OVCAR-3 cell line
[8] = tested on: HOP-62; test: Antiproliferative activity against human HOP62 cell line

GI50 [1] [µM]	GI50 [2] [µM]	GI50 [5] [µM]	GI50 [7] [µM]	SMILES	GI50 [3] [µM]	GI50 [4] [µM]	GI50 [6] [µM]	GI50 [8] [µM]
4.47	7.08	2.45	5.89	COc1cc2c3c(n(CCCN(C)C)c(=O)c2cc1OC)-c1ccccc1C3=O	6.61	6.17	11	–
2.04	3.02	< 0.01	2.63	CN(C)CCCn1c2c(c3cc4c(cc3c1=O)OCO4)C(=O)c1ccccc1-2	0.3	2.69	0.023	< 0.01
> 100	> 100	47.9	> 100	O=C1c2ccccc2-c2oc(=O)c3cc4c(cc3c21)OCO4	25.1	> 100	> 100	18.2
61.7	> 100	> 100	> 100	O=C1c2ccccc2-c2c1c1ccc([N+](=O)[O-])cc1c(=O)n2CCN1CCOCC1	83.2	–	58.9	52.5
100	100	100	100	COc1cc2c3c(oc(=O)c2cc1OC)-c1ccccc1C3=O	100	100	100	–
> 100	> 100	> 100	> 100	COc1cc2c(=O)oc3c(c2c(OC)c1OC)C(=O)c1ccccc1-3	> 100	> 100	> 100	53.7

Second part, the molecule before the results:

SMILES	GI50 [1] [µM]	GI50 [2] [µM]	GI50 [5] [µM]	GI50 [7] [µM]	GI50 [3] [µM]	GI50 [4] [µM]	GI50 [6] [µM]	GI50 [8] [µM]
COc1cc2c3c(n(CCN4CCOCC4)c(=O)c2cc1OC)-c1ccccc1C3=O	> 100	> 100	60.3	> 100	56.2	> 100	> 100	89.1
O=C1c2ccccc2-c2c1c1ccc([N+](=O)[O-])cc1c(=O)n2CCCn1ccnc1	–	–	–	–	–	0.016	–	–
COc1cc2c3c(n(CCCn4ccnc4)c(=O)c2cc1OC)-c1ccccc1C3=O	–	–	–	–	–	< 0.01	–	–
O=C1c2ccccc2-c2c1c1ccccc1c(=O)n2CCNCCO	–	–	–	–	–	1.65	–	–
CN(C)CCCn1c2c(c3ccc([N+](=O)[O-])cc3c1=O)C(=O)c1ccccc1-2	–	> 100	6.46	25.7	7.08	–	4.17	–
O=C1c2ccccc2-c2c1c1ccccc1c(=O)n2CCCn1ccnc1	1.41	–	1.41	1.66	0.79	2.34	1.66	2.69
O=C1c2ccccc2-c2oc(=O)c3cc([N+](=O)[O-])ccc3c21	> 100	> 100	> 100	> 100	> 100	> 100	> 100	> 100
CC[C@@]1(O)C(=O)OCc2c1cc1n(c2=O)Cc2cc3ccccc3nc2-1 [CAMPTOTHECIN]	–	–	–	–	–	0.01	–	–
O=C1c2ccccc2-c2c1c1ccccc1c(=O)n2CCN1CCOCC1	–	–	–	–	–	85.1	–	–
